Measurements: patent publication US11318141B2, “Methods and compositions related to STK1-targeted small molecules as antibiotic resistance breakers” (Ohio State Innovation Foundation, priority 2017, dated 2022)
≈ marks a conversion by molar mass, not a printed value. Where “and” joins values, the source holds several entries; their conditions need not be identical. Equal values may be shown once. Read-outs that look alike come from different tables or passages of the source.

What was measured:
[1] = system: S. aureus MW2-WT; assay: microbe, parasite or virus in culture; type: cell-based, Staphylococcus aureus; conditions: for MIC / susceptibility pattern for MW2 in the presence vs absence of Inh2-B1: E-test, 50 μM Inh2-B1
[2] = system: S. aureus MW2ΔSTK1 mutant; assay: E-test antibiotic susceptibility (MIC), Muller-Hinton agar; type: cell-based; conditions: Staphylococcus aureus
[3] = system: S. aureus MW2-WT; assay: Time-to-kill assay (OD and CFU counts over 16 h), broth dilution; type: cell-based, Staphylococcus aureus; conditions: only 50 μM Inh2-B1, only 1.5 μM Ceftriaxone (1 μg/ml) or only 3 μM Cefotaxime (1 μg/ml), 16 h
Experimental: FIGS. 4A-F show. […] Optical Density and corresponding Colony forming units of (C and D) MW2-WT and (E and F) MW2ΔSTK1 cultures in the presence or absence 50 μM Inh2-B1, 1.51 μM (1 μg/ml) Ceftriaxone, 2.125 μM (1 μg/ml) Cefotaxime, and combination of Inh2-B1 plus Ceftriaxone, and Inh2-B1 plus Cefotaxime. The experiments were carried out as described in the Materials and Method section using Muller-Hinton broth and seeded with 4×10^6 CFUs of S. aureus MW2-Wild type or MW2ΔSTK1 strains per well. Each data points represent Mean±S.D. P values of significance (**=<0.01, ***=<0.001) were determined using the t-test with Welch's corrections. NS—Not significant.
(§1) Subsequently, the susceptibility of S. aureus MW2 strain to Ceftriaxone, Cefotaxime, Inh2, and Inh2-B1 was confirmed by the CLSI recommended serial dilution method using Muller Hinton broth. Minimum bactericidal activity (MBC) was measured using Muller-Hinton agar. Changes in the MBC of Ceftriaxone/Cefotaxime in the presence of serially diluted Inh2-B1 was determined in two steps. Initial screening was carried out using the Checkerboard method using Muller-Hinton agar (FIG. 15). […] Subsequent time to kill assays were carried out using 50 μM Inh2-B1 and Ceftriaxone. Cefotaxime (1 μg/ml) in a final volume of 250 μl using a sterile 96-well (U-bottom) microtiter plate over a period of 16 h at 37° C. under constant rotation (120 rpm). Optical density and corresponding CFU counts were measured at every two-hour interval up to 8 hours with a final overnight reading at the end of incubation period. CFU counts were measured using appropriate dilution of 10 μl of properly mixed samples at each time interval. All experiments were performed in three biological replicates and the statistical analysis of the results obtained at each time point was carried out by the non-parametric t-test with Welch's correction using GraphPad Prism 6 software.

[4] = system: S. aureus MW2-WT; assay: S. aureus mouse septicemia model, therapeutic study; type: in vivo, CD-1 mice; conditions: only Cefotaxime 10 mg/kg
Experimental: The virulence potential of the wild-type S. aureus MW2 wild-type and corresponding MW2ΔSTK1 and MW2ΔSTP1 mutants was assessed using the mouse-septicemia model. CD-1 mice (5 weeks old, 20-22 g. Charles River Laboratories, ten female mice/group and housed in a group of 5 mice/cage) were lightly anesthetized with isoflurane and injected retro-orbitally with the S. aureus MW2 or isogenic MW2Δstk1 mutant (4×10^8 CFU/0.1 ml of PBS). […] For therapeutic studies, the animals were first challenged with MW2-WT strain as described above and subsequently administered with antibiotic and/or small molecule compounds. The latter was started 4 h after the challenge and subsequently 12 h apart for 4 days post infection. Thus, Inh2-B1 (5 mg/kg body weight in 0.3 ml vehicle buffer), Ceftriaxone (10 and 25 mg/kg body weight in 0.3 ml vehicle buffer). Cefotaxime (10 mg/kg body weight), combination of Ceftriaxone (10 mg and 25 mg/kg body weight in 0.3 ml vehicle buffer) or Cefotaxime (10 mg/kg body weight) with Inh2-B1 (5 mg/kg body weight in 0.3 ml vehicle buffer), or 0.3 ml of vehicle-buffer (50 mM Tris/HCl, pH 8.8, 1.67% [v/v] DMSO). Early removal and euthanasia criteria were applied to all experimental mice showing penultimate sign(s) of the unrecoverable stage of illness, including ruffled skin with a hunch back, loss of more than 20% of body mass as compared to unchallenged mice receiving mock treatment, dyspnea, and labored gasping. All experiments were performed twice. Data were combined, and percentage survival in each group was statistically evaluated by the Log-Rank test (Kaplan-Meier) using the GraphPad Prism 6 software. P<0.05 was treated as a significant difference. On Day 3 P.I., 3-6 mice from different groups receiving treatment with a single antibiotic or combination therapy were euthanized and sacrificed, and kidneys were […] for determining the bacterial load, which was determined by counting the colony forming units in the homogenized tissue in sterile PBS buffer.

[5] = system: S. aureus MW2 wild-type; assay: Checkerboard titration end-point bactericidal assay (MBC), Muller-Hinton agar; type: cell-based, Staphylococcus aureus; conditions: for MBC: Staphylococcus aureus, MW2WILDTYPE
Experimental: FIGS. 15A-15B show checkerboard assays for determining bactericidal assay. Serial two-fold dilutions of 2 mM of Inh2-B1 (MW=411.58 g/mol) and (A) 3 mM ceftriaxone (MW=669.7 g/mol) were made in two separate 96-well plates in vertical (B1-B12 to H1-H2 wells) and horizontal (A2-H2 to A12-H12 wells) directions respectively. Serially diluted Inh2-B1 (100 μL) in the individual well was then mixed with the 100 μL serially diluted ceftriaxone present in the corresponding wells. The resulting various combinations of Inh2-B1 (starting from 1 mM) and ceftriaxone (starting from 1.5 mM) or cefotaxime (2.1 mM) as well as serially diluted one Inh2-B1 (B1 to H1) and ceftriaxone (A2-A12) or cefotaxime (A2-A12) were then incorporated in Muller-Hinton mini agar plates (2 mL). The agar plates were then seeded and diluted S. aureus MW2-wild-type culture equivalent to approximately 23±3 CFU. This checkerboard assay was used to determine the ideal combination of lowest concentration of Inh2-B1 and ceftriaxone that kills 99.9% of the wild-type MW2.
Since the STK1 is not essential for bacterial survival and its absence results in retardation of growth, an end-point bactericidal assay was done, employing the Checkerboard titration method followed by a time-to-kill assay using the broth dilution method. The 96-well plate-based checkerboard titration assays were performed using the fixed number of CFUs of MW2 strain, and the survival of the bacteria was measured on solid agar plates as an end-point result. […] The cut-off value to designate clinical isolates of S. aureus for antibiotics, including Ceftriaxone (TX) and Cefotaxime (CT) as susceptible, is less than 4 μg/ml (i.e., <4.8 μM of TX, and <7 μM of CT). […] CFU counts of MW2-WT grown in the presence of various concentrations of Inh2-B1 were examined over a period of 16 h. […] Similarly, it was also determined CFU counts of MW2-WT and MW2ΔSTK1 strains each grown in the absence or the presence of 50 μM of Inh2-B1 and 1.5 μM Ceftriaxone (1 μg/ml) or […] Cefotaxime (1 μg/ml) for 16 h employing the broth dilution method. […] Further, to address whether MW2 or STK1 could become refractory to a potential combined therapy, the S. aureus MW2 wild-type strain was grown in the presence of suboptimal dose of Inh2-B1 alone and combination with Ceftriaxone and Cefotaxime (25 μM Inh2-B1 and 3 μM of Ceftriaxone or 3 μM Cefotaxime) for consecutive 10 generations.
as §1, with “interval.” for “interval. All experiments were performed in three biological replicates and the statistical analysis of the results obtained at each time point was carried out by the non-parametric t-test with Welch's correction using GraphPad Prism 6 software.”

[6] = system: S. aureus MW2ΔSTP1 mutant; assay: E-test antibiotic susceptibility (MIC), Muller-Hinton agar; type: cell-based; conditions: Staphylococcus aureus

Compound | MIC / susceptibility pattern for MW2 in the presence vs absence of Inh2-B1 [1] | MIC [2] [µg/mL] | growth pattern of the wild-type, single agent [3] | time within which all challenged mice died [4] [h] | MBC ([5]; agent alone, MW2, read-out: Minimum bactericidal concentration (MBC)) | MBC ([5]; in the presence of 50 μM of Inh2-B1, read-out: MBC for MW2 in the presence of Inh2-B1) | concentration up to which growth of MW2 was seen ([5]; agent alone, further analysis) [µM] | concentration of wells with ≥1 CFU of wild-type MW2 ([5]; checkerboard, agent alone) [µM] | fold reduction of MBC ([5]; in the presence of 50 μM of Inh2-B1 vs antibiotic alone) [fold] | MIC ([1]; Staphylococcus aureus, MW2WT) [µg/mL] | MIC [6] [µg/mL]
C[C@@H](O)[C@H]1C(=O)N2C(C(=O)O)=C(S[C@@H]3CN[C@H](C(=O)N(C)C)C3)[C@H](C)[C@H]12 [Meropenem] | remained unaltered | – | – | – | – | – | – | – | – | – | –
CO/N=C(\C(=O)N[C@@H]1C(=O)N2C(C(=O)O)=C(COC(C)=O)CS[C@H]12)c1csc(N)n1 [Cefotaxime] | – | 4 (≈ 8.78 µM) | remained unaltered | 36 to 48 | 220 µM and 100 µg/mL | 27.5 µM and 12.5 µg/mL | 176 | ≤ 110 | 8 | > 100 | > 100
CC[C@H]1OC(=O)[C@H](C)[C@@H](O[C@H]2C[C@@](C)(OC)[C@@H](O)[C@H](C)O2)[C@H](C)[C@@H](O[C@@H]2O[C@H](C)C[C@H](N(C)C)[C@H]2O)[C@](C)(O)C[C@@H](C)C(=O)[C@H](C)[C@@H](O)[C@]1(C)O [Erythromycin] | remained unaltered | – | – | – | – | – | – | – | – | – | –
